From patent US11572399B2, “Long-acting GIP peptide analogues” (University of Copenhagen, priority 2017, dated 2023)
Where “and” joins values, the source holds several entries; their conditions need not be identical. Identical values can stand only once. Like-named read-outs stand apart in the source and are kept apart here. Peptide text beside a SMILES is read from it. * marks the point of attachment. C16 diacid = O=C(O)CCCCCCCCCCCCCCC(=O)*; Palmitoyl = CCCCCCCCCCCCCCCC(=O)*

Tests used:
[1] = molecular target: T1, human GIP receptor (Homo sapiens, UniProt P48546); experiment: cAMP accumulation assay, antagonism of a GIP-mediated cAMP response (50-80% of max); assay type: cell-based; conditions: for Fold change of IC50 versus GIP(5-30)NH2: fold change of IC50 from GIP(5-30)NH2; for IC50: transiently transfected COS-7 cells, Table 1 and text, read-out: cAMP antagonism nM (IC50, antagonistic potency)
T1 construct: host or cells: COS-7, transient transfection (calcium phosphate), cDNA in pCMV-Script
T1 sequence (P48546 22-466): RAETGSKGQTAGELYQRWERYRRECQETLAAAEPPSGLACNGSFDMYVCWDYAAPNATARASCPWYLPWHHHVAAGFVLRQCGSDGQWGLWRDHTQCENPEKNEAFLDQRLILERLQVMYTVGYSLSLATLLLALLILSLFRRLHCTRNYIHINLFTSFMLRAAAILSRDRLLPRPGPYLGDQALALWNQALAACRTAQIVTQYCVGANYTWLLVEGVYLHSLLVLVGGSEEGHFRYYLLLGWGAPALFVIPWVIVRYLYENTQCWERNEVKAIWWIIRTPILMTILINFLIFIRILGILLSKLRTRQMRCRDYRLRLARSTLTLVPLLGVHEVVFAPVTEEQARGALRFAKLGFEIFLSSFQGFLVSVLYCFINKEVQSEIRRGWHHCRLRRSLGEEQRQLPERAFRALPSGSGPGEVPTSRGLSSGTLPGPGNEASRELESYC
Experimental: The day after, the cells were washed twice with Hepes buffered saline (HBS) buffer and incubated with HBS and 1 mM 3-isobutyl-1-methylxanthine (IBMX) for 30 min at 37° C. […] The HitHunter™ cAMP XS assay (DiscoveRx) was carried out according to the manufacturer's instructions.

[2] = molecular target: T1, human GIP receptor; experiment: cAMP accumulation assay, agonism (ligand alone); assay type: cell-based; conditions: Table 1; for Emax: COS-7, intrinsic cAMP activity
[3] = molecular target: T1, human GIP receptor; experiment: 125I-human GIP competition binding assay, in the presence and absence of 2% HSA; conditions: for Fold change HSA (2%)/Casein (0.1%): IC50 (plus HSA)/IC50 (minus HSA); for Binding (+/−HSA) Fold: fold change +HSA/−HSA; for Ki: absence of HSA;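 on all read-outs here: nonspecific binding taken as radioligand bound to untransfected cells, IC50 obtained from nonlinear regression fits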
Experimental: Transient transfection of the COS-7 cells for cAMP accumulation and competition binding was performed using the calcium phosphate precipitation method with the addition of chloroquine^46-47.
Transient transfected COS-7 cells expressing the human GIP receptor were seeded in clear 96-well plates the day after transfection using a number of cells/well that obtained 5-10% specific binding of the added radioactive ligand. The following day, cells were assayed by competition binding for 3 h at 4° C. using 15-40 pM 125 I-human GIP as well as increasing concentrations unlabeled ligand in 50 mM Hepes buffer (pH 7.2) in the presence and absence of 2% HSA. After incubation, the cells were washed twice in ice-cold binding buffer (+/−2% HSA) and lysed using 200 mM NaOH with 1% SDS for 30 min. Nonspecific binding was determined as the binding of radioactive ligand to untransfected cells.
IC50, EC50, and Ki values were determined by nonlinear regression. […] Ki values were based on the formula for one class of binding sites in homologous competition binding studies and the Cheng Prussoffs formula, respectively (DeBlasi et al., 1989). To determine the HSA binding potential, the fold change in affinity (as determined by IC50) was calculated as IC50 (plus HSA)/IC50 (minus HSA).

[4] = binding in 0.1% casein (absence of HSA), log value, read-out: logIC50 0.1% casein (converted)
[5] = binding in presence of 2% HSA, read-out: logIC50 2% HSA (converted)
[6] = heterologous competition binding, transiently transfected COS-7 cells expressing the human GIP receptor, read-out: Binding

Structure (SMILES) | Fold change of IC50 versus GIP(5-30)NH2 [1] | Emax ([2]; COS-7 cells) | Fold change HSA (2%)/Casein (0.1%) [3] | IC50 [3, 4] | IC50 [3, 5] | Binding (+/−HSA) Fold [3] | IC50 [3, 6] | cAMP - antagonisme fold (paired) ([1]; fold vs GIP(3-30)NH2, Table 3b) | IC50 [1] | IC50 ([3]; 0.1% casein, no HSA, Table 3b, read-out: Binding logIC50 0.1% casein (converted)) | IC50 ([3]; 2% HSA, Table 3b, read-out: Binding logIC50 2% HSA (converted)) | IC50 ([3]; Table 3b, initial data, read-out: Binding IC50) | Binding fold (paired) ([3]; fold decrease in affinity compared to GIP(3-30)NH2, Table 3b) | Fold change in affinity, IC50 (plus HSA)/IC50 (minus HSA) ([3]; presence vs absence of 2% HSA, proxy for albumin binding) | EC50 ([2]; given as log EC50 (negative sign), read-out: cAMP agonism EC50 (log) (converted)) | Ki [3] | IC50 ([3]; heterologous competition binding, transiently transfected COS-7 cells expressing the human GIP receptor, log value of the nM column, read-out: Binding log (converted)) | EC50 ([2]; COS-7 cells, read-out: cAMP agonism nM (EC50)) | Ability to antagonize the GIP-mediated cAMP response (in words) [1] | Affinity compared to GIP(3-30)NH2 (in words) [3]
CC[C@H](C)[C@H](NC(=O)[C@H](CO)NC(=O)[C@H](Cc1ccc(O)cc1)NC(=O)[C@H](CC(=O)O)NC(=O)[C@H](CO)NC(=O)[C@@H](NC(=O)[C@H](CCCCNC(=O)CCCCCCCCCCCCCCC(=O)O)NC(=O)[C@@H](N)[C@@H](C)O)[C@@H](C)CC)C(=O)N[C@@H](C)C(=O)N[C@@H](CCSC)C(=O)N[C@@H](CC(=O)O)C(=O)N[C@@H](CCCCN)C(=O)N[C@H](C(=O)N[C@@H](Cc1c[nH]cn1)C(=O)N[C@@H](CCC(N)=O)C(=O)N[C@@H](CCC(N)=O)C(=O)N[C@@H](CC(=O)O)C(=O)N[C@@H](Cc1ccccc1)C(=O)N[C@H](C(=O)N[C@@H](CC(N)=O)C(=O)N[C@@H](Cc1c[nH]c2ccccc12)C(=O)N[C@@H](CC(C)C)C(=O)N[C@@H](CC(C)C)C(=O)N[C@@H](C)C(=O)N[C@@H](CCC(N)=O)C(=O)N[C@@H](CCCCN)C(N)=O)C(C)C)[C@@H](C)CC [AT168, [hGIP(5-30)NH2[F6K]-C16diacid/6]] | 5.3 | 0% | 2.0 | 50.1 nM | 100 nM | 2.3 | 48 nM | – | – | – | – | – | – | – | – | – | – | – | – | –
CC[C@H](C)[C@H](NC(=O)[C@H](CO)NC(=O)[C@H](Cc1ccc(O)cc1)NC(=O)[C@H](CC(=O)O)NC(=O)[C@H](CO)NC(=O)[C@@H](NC(=O)[C@H](Cc1ccccc1)NC(=O)[C@@H](NC(=O)CNC(=O)[C@@H](N)CCC(=O)O)[C@@H](C)O)[C@@H](C)CC)C(=O)N[C@@H](C)C(=O)N[C@@H](CCSC)C(=O)N[C@@H](CC(=O)O)C(=O)N[C@@H](CCCCN)C(=O)N[C@H](C(=O)N[C@@H](CCCCNC(=O)CCCCCCCCCCCCCCC(=O)O)C(=O)N[C@@H](CCC(N)=O)C(=O)N[C@@H](CCC(N)=O)C(=O)N[C@@H](CC(=O)O)C(=O)N[C@@H](Cc1ccccc1)C(=O)N[C@H](C(=O)N[C@@H](CC(N)=O)C(=O)N[C@@H](Cc1c[nH]c2ccccc12)C(=O)N[C@@H](CC(C)C)C(=O)N[C@@H](CC(C)C)C(=O)N[C@@H](C)C(=O)N[C@@H](CCC(N)=O)C(=O)N[C@@H](CCCCN)C(N)=O)C(C)C)[C@@H](C)CC [AT158, [hGIP(3-30)NH2[H18K]-C16diacid/18]] (H-EGTFISDYSIAMDKIK(C16 diacid)QQDFVNWLLAQK-NH2; N-terminus assumed) | – | 6% | – | – | – | – | – | 0.1 fold | 5 nM | 7.9 nM | 16 nM | 7.9 nM | 1 fold | 2.0 fold | – | – | – | – | – | –
CC[C@H](C)[C@H](NC(=O)[C@H](CO)NC(=O)[C@H](Cc1ccc(O)cc1)NC(=O)[C@H](CC(=O)O)NC(=O)[C@H](CO)NC(=O)[C@@H](NC(=O)[C@H](Cc1ccccc1)NC(=O)[C@@H](N)[C@@H](C)O)[C@@H](C)CC)C(=O)N[C@@H](C)C(=O)N[C@@H](CCSC)C(=O)N[C@@H](CC(=O)O)C(=O)N[C@@H](CCCCN)C(=O)N[C@H](C(=O)N[C@@H](Cc1c[nH]cn1)C(=O)N[C@@H](CCC(N)=O)C(=O)N[C@@H](CCC(N)=O)C(=O)N[C@@H](CC(=O)O)C(=O)N[C@@H](Cc1ccccc1)C(=O)N[C@H](C(=O)N[C@@H](CC(N)=O)C(=O)N[C@@H](Cc1c[nH]c2ccccc12)C(=O)N[C@@H](CC(C)C)C(=O)N[C@@H](CC(C)C)C(=O)N[C@@H](CCCCNC(=O)CCCCCCCCCCCCCCC(=O)O)C(=O)N[C@@H](CCC(N)=O)C(=O)N[C@@H](CCCCN)C(N)=O)C(C)C)[C@@H](C)CC [AT188, [hGIP(5-30)NH2[A28K]-C16diacid/28]] (H-TFISDYSIAMDKIHQQDFVNWLLK(C16 diacid)QK-NH2; N-terminus assumed) | 6.8 | 10% | 0.0 | – | – | 3.2 | – | – | 152 nM | – | – | – | – | – | 100 nM and 158 nM | 144 nM | 200 nM and 183 nM | – | – | –
CC[C@H](C)[C@H](NC(=O)[C@H](CO)NC(=O)[C@H](Cc1ccc(O)cc1)NC(=O)[C@H](CC(=O)O)NC(=O)[C@H](CO)NC(=O)[C@@H](NC(=O)[C@H](Cc1ccccc1)NC(=O)[C@@H](N)[C@@H](C)O)[C@@H](C)CC)C(=O)N[C@@H](C)C(=O)N[C@@H](CCSC)C(=O)N[C@@H](CC(=O)O)C(=O)N[C@@H](CCCCN)C(=O)N[C@H](C(=O)N[C@@H](Cc1c[nH]cn1)C(=O)N[C@@H](CCC(N)=O)C(=O)N[C@@H](CCC(N)=O)C(=O)N[C@@H](CC(=O)O)C(=O)N[C@@H](Cc1ccccc1)C(=O)N[C@H](C(=O)N[C@@H](CCCCNC(=O)CCCCCCCCCCCCCCC(=O)O)C(=O)N[C@@H](Cc1c[nH]c2ccccc12)C(=O)N[C@@H](CC(C)C)C(=O)N[C@@H](CC(C)C)C(=O)N[C@@H](C)C(=O)N[C@@H](CCC(N)=O)C(=O)N[C@@H](CCCCN)C(N)=O)C(C)C)[C@@H](C)CC [AT184, [hGIP(5-30)NH2[N24K]-C16diacid/24]] (H-TFISDYSIAMDKIHQQDFVK(C16 diacid)WLLAQK-NH2; N-terminus assumed) | 3.9 | 0% | 1.6 | – | – | 3.9 | – | – | – | – | – | – | – | – | – | 224 nM | – | – | – | –
CCCCCCCCCCCCCCCC(=O)NCCCC[C@H](NC(=O)[C@@H](NC(=O)[C@H](CCCNC(=N)N)NC(=O)[C@H](CC(=O)O)NC(=O)[C@H](CCSC)NC(=O)[C@H](C)NC(=O)[C@@H](NC(=O)[C@H](CO)NC(=O)[C@H](Cc1ccc(O)cc1)NC(=O)[C@H](CC(=O)O)NC(=O)[C@H](CO)NC(=O)[C@@H](NC(=O)[C@H](Cc1ccccc1)NC(=O)[C@@H](N)[C@@H](C)O)[C@@H](C)CC)[C@@H](C)CC)[C@@H](C)CC)C(=O)N[C@@H](CCC(N)=O)C(=O)N[C@@H](CCC(N)=O)C(=O)N[C@@H](CC(=O)O)C(=O)N[C@@H](Cc1ccccc1)C(=O)N[C@H](C(=O)N[C@@H](CC(N)=O)C(=O)N[C@@H](Cc1c[nH]c2ccccc12)C(=O)N[C@@H](CC(C)C)C(=O)N[C@@H](CC(C)C)C(=O)N[C@@H](C)C(=O)N[C@@H](CCC(N)=O)C(=O)N[C@@H](CCCNC(=N)N)C(N)=O)C(C)C [AT134, [hGIP(5-30)NH2[K16R; H18K; K30R]-16/18]] (H-TFISDYSIAMDRIK(Palmitoyl)QQDFVNWLLAQR-NH2; N-terminus assumed) | – | 11% | 5.5 | 794 nM | – | – | 882 nM | – | 93 nM | – | – | – | – | – | – | – | – | 35 nM | – | –
CCCCCCCCCCCC(=O)N[C@H](C(=O)N[C@@H](Cc1ccccc1)C(=O)N[C@H](C(=O)N[C@@H](CO)C(=O)N[C@@H](CC(=O)O)C(=O)N[C@@H](Cc1ccc(O)cc1)C(=O)N[C@@H](CO)C(=O)N[C@H](C(=O)N[C@@H](C)C(=O)N[C@@H](CCSC)C(=O)N[C@@H](CC(=O)O)C(=O)N[C@@H](CCCCN)C(=O)N[C@H](C(=O)N[C@@H](Cc1c[nH]cn1)C(=O)N[C@@H](CCC(N)=O)C(=O)N[C@@H](CCC(N)=O)C(=O)N[C@@H](CC(=O)O)C(=O)N[C@@H](Cc1ccccc1)C(=O)N[C@H](C(=O)N[C@@H](CC(N)=O)C(=O)N[C@@H](Cc1c[nH]c2ccccc12)C(=O)N[C@@H](CC(C)C)C(=O)N[C@@H](CC(C)C)C(=O)N[C@@H](C)C(=O)N[C@@H](CCC(N)=O)C(=O)N[C@@H](CCCCN)C(N)=O)C(C)C)[C@@H](C)CC)[C@@H](C)CC)[C@@H](C)CC)[C@@H](C)O [AT118, [hGIP(5-30)NH2—C12/5]] | – | 0% | 7.7 | 126 nM | 881 nM | – | 102 nM | – | 29 nM | – | – | – | – | – | – | – | – | – | high potent antagonists | affinities in the same range as GIP(3-30)NH2
